From ChEMBL document CHEMBL1129855, “Molecular connectivity to find -blockers with low toxicity” (Bioorg Med Chem Lett, 1997)

Assays:
Settings in all cases: mouse, in vivo
[1] = Compound was tested for its toxicity after intravenous administration in mice
[2] = Compound was tested for its toxicity after oral administration to mice in experiment 1
[3] = Compound was tested for its toxicity after oral administration to mice in experiment 2
[4] = Compound was tested for its toxicity after intravenous administration to mice in experiment 1
[5] = Compound was tested for its toxicity after intravenous administration to mice in experiment 2
[6] = The activity was measured in mice after oral administration of the compound; type: ADME
[7] = Compound was tested for its toxicity after oral administration in mice
[8] = Compound was tested for its toxicity after intravenous administration to mice

Row | SMILES | LD50 [2] [mg/kg] | LD50 [3] [mg/kg] | LD50 [4] [mg/kg] | LD50 [5] [mg/kg] | also measured
1 | O=C(O)C1CCc2cc(C3CCCCC3)c(Cl)cc21 (stereo unspecified) | 41 | 252 |  |  | LD50 [1]: 34 mg/kg
2 | CC(C)NCC(O)c1ccc2ccccc2c1 (stereo unspecified) [PRONETALOL] | 512 | 486 | 46 | 38 | 
3 | CCC(C)NCC(O)c1ccc2c(c1)CCCC2 (stereo unspecified) [BUTIDRINE] | 235 | 212 | 20.2 | 24.6 | 
4 | CC(C)(C)NCC(O)COc1cccc2c1CCCC2=O (single isomer, unassigned) [LEVOBUNOLOL] | 700 | 798 | 25 | 37.7 | 
5 | C=CCc1ccccc1OCC(O)CNC(C)C (stereo unspecified) [ALPRENOLOL] | 278 | 415 |  |  | 
6 | CC(C)NCC(O)COc1ccc(CCOCC2CC2)cc1 (stereo unspecified) [BETAXOLOL] | 944 | 625 | 37 | 38 | 
7 | CC(C)(C)NCC(O)COc1ccc(NC(=O)NC2CCCCC2)cc1 (stereo unspecified) [TALINOLOL] | 593 | 1050 | 25 | 25.8 | 
8 | CC(CCc1ccccc1)NCC(O)c1ccc(O)c(C(N)=O)c1 (stereo unspecified) [LABETALOL] | 1450 | 1370 | 47 | 51.1 | 
9 | CCc1cccc2cc(C(O)CNC(C)(C)C)oc12 (stereo unspecified) [BUFURALOL] | 117 | 273 | 29.7 | 25.9 | 
10 | Cc1cc2c(OCC(CNC(C)(C)C)OC(=O)c3ccccc3)cccc2[nH]1 (stereo unspecified) [BOPINDOLOL] |  |  | 17 | 15.9 | 
11 | CC(C)(C)NC[C@H](O)COc1nsnc1N1CCOCC1 [TIMOLOL] | 1190 | 1460 |  |  | 
12 | CC(C)NCC(O)c1ccc(NS(C)(=O)=O)cc1 (stereo unspecified) [SOTALOL] | 2600 | 2630 |  |  | 
13 | CC(C)(C)NCC(O)COc1cccc2c1CCC(=O)N2 (stereo unspecified) [CARTEOLOL] | 810 | 656 |  | 39.4 | 
14 | CC1=C(/C=C/C(C)=C/C=C/C(C)=C/C=C/C=C(C)/C=C/C=C(C)/C=C/C2=C(C)CCCC2(C)C)C(C)(C)CCC1 [BETA CAROTENE] |  |  |  |  | LD50 [6]: 6750 mg/kg; LD50 [7]: 26 mg/kg
15 | CC(C)(C)NCC(O)COc1cccc2c1C[C@H](O)[C@H](O)C2 (stereo partly specified) [NADOLOL] | 4500 | 2710 |  |  | 
16 | CC(C)(Sc1cc(C(C)(C)C)c(O)c(C(C)(C)C)c1)Sc1cc(C(C)(C)C)c(O)c(C(C)(C)C)c1 [PROBUCOL] | > 5000 |  |  |  | LD50 [8]: 25 mg/kg
17 | CC(C)(C)NCC(O)COc1ccccc1OCC1CCCO1 (stereo unspecified) [BUFETOLOL] | 409 | 238 |  |  | 
18 | CC(C)(C)NCC(O)CSc1nc(-c2ccc(C(N)=O)s2)cs1 (stereo unspecified) [AROTINOLOL] |  |  |  | 57.8 | 
19 | Cc1ccc(OCC(O)CNC(C)(C)C)c2oc(=O)ccc12 (stereo unspecified) [BUCUMOLOL] | 676 | 828 | 33.1 | 46.8 | 
20 | CCCCCC(O)C1C(=O)OC(C)C(O)/C=C/C=C/C=C/C=C/C=C(\C)C(O)CC(O)CC(O)CC(O)CC(O)CC(O)CC1O (stereo unspecified) |  |  |  |  | LD50 [1]: 5 mg/kg; LD50 [7]: 18 mg/kg
21 | CC(=O)Oc1c(C)cc(OCC(O)CNC(C)C)c(C)c1C (stereo unspecified) [METIPRANOLOL] |  |  | 31 | 38.8 | 
22 | CC(C)(C)NCC(O)COc1cccc2c1SCCC2 (stereo unspecified) [TERTATOLOL] |  |  | 37 | 34.1 | 
23 | CC(C)NCC(O)COc1cccc2c1C=CC2 (stereo unspecified) [INDENOLOL] |  |  | 26 | 32.4 | 
24 | N/C(CC(O)COc1cccc2ccccc12)=N/O (stereo unspecified) [NADOXOLOL] | 1000 | 710 | 180 | 119 | 
25 | CC(C)(C)NCC(O)COc1ccccc1C#N (stereo unspecified) [BUNITROLOL] | 1350 | 998 |  |  | 
26 | COCCc1ccc(OCC(O)CNC(C)C)cc1 (stereo unspecified) [METOPROLOL] | 2090 | 3060 | 118 | 292 | 
27 | CCCC(=O)Nc1ccc(OCC(O)CNC(C)C)c(C(C)=O)c1 (stereo unspecified) [ACEBUTOLOL] |  |  | 76 | 82.2 | 
28 | CCN(CC)C(=O)Nc1ccc(OCC(O)CNC(C)(C)C)c(C(C)=O)c1 (stereo unspecified) [CELIPROLOL] | 1830 | 1770 | 56.2 | 42.8 | 
29 | CC(=O)c1cc2cccc(OCC(O)CNC(C)C)c2o1 (stereo unspecified) [BEFUNOLOL] |  |  | 102 | 75.1 | 
